{"source": "patent US12279521B2", "about": "“Materials for organic electroluminescent devices” (Merck Patent GmbH, priority 2019, dated 2025)", "key": {"[1]": {"assay": "Solubility in organic solvents via HPTLC (after 24 hours and 7 days)", "format": "physicochemical", "method": "One way of processing the materials of the invention is from solution. In addition, it is a feature of materials of the invention that their […] stability is elevated, as apparent from the long-term solubility data in Table 1.\nMethod of Determining Solubility Via HPTLC\nSample preparation: The material is weighed out in two 25 mg portions (W1, W2), 0.5 ml of solvent is added, and the mixture is shaken at 60° C. for 60 minutes and then at 25° C. and 600 rpm for 24 h. When the solution is clear, more solid material is added until a saturated solution is formed. After being cooled to room temperature, the samples are filtered through a syringe filter (0.2 μm). The solutions are stored in glass vials at room temperature for 7 days, and the solubility is determined by HPTLC on days 1 and 7. For this purpose, the filtered solutions are diluted.\nCalibration: Making up a standard solution: about 6 mg of substance are dissolved in 20 ml of 2-methyl-THF. If it is not possible to dissolve the material under these conditions, the concentration can be reduced. The stock solution is diluted for the calibration (standardization).\nChromatographic conditions (HPTLC): plate: HPTLC RP 18 F254, 10×20 cm eluent: methanol/2-methyl-THF 70/30 (V/V)\nHPTLC measurement: The HPTLC plate is scanned by a TLC scanner, peaks are integrated and a calibration function is determined."}, "[2]": {"assay": "Baking of emission layer film at elevated temperature: state of film", "format": "physicochemical", "conditions": "Ref. temp. 150, elevated temp. 180; EML mixture per Table 5", "text": "The production of the corresponding OLED components is described below.\nThe emission layer is composed of at least one matrix material (host material) and an emitting dopant (emitter). In addition, it is possible to use mixtures of a plurality of matrix materials and co-dopants. Details given in such a form as TMM-A (92%):dopant (8%) mean here that the material TMM-A is present in the emission layer in a proportion by weight of 92% and dopant in a proportion by weight of 8%. The mixture for the emission layer is dissolved in toluene or optionally chlorobenzene. The typical solids content of such solutions is about 17 g/I when, as here, the layer thickness of 60 nm which is typical of a device is to be achieved by means of spin-coating. The layers are spun on in an inert gas atmosphere, argon in the present case, and baked for 10 minutes."}}}
{"smiles": "c1ccc(-c2cc(-c3ccccc3)cc(-c3cccc(-c4cccc(C5(c6cccc(-c7cccc(-c8cc(-c9ccccc9)cc(-c9ccccc9)c8)c7)c6)c6cc7c(cc6-c6c5ccc5c6-c6ccccc6C56c5ccccc5-c5ccccc56)OCO7)c4)c3)c2)cc1", "note": "[Compound M-0226]", "values": [{"measurement": "Solubility after 24 hours, Cyclohexylbenzene", "setting": "[1]; cyclohexylbenzene, 24 hours, room temperature", "value": "<30", "unit": "mg/mL"}, {"measurement": "Solubility after 7 days, Cyclohexylbenzene", "setting": "[1]; cyclohexylbenzene, 7 days storage at room temperature", "value": "<25", "unit": "mg/mL"}, {"measurement": "Solubility after 24 hours, Mesitylene", "setting": "[1]; mesitylene, 24 hours, room temperature", "value": "<20", "unit": "mg/mL"}, {"measurement": "Solubility after 7 days, Mesitylene", "setting": "[1]; mesitylene, 7 days storage at room temperature", "value": "<20", "unit": "mg/mL"}, {"measurement": "Solubility after 24 hours, Tetralin", "setting": "[1]; tetralin, 24 hours, room temperature", "value": "<30", "unit": "mg/mL"}, {"measurement": "Solubility after 7 days, Tetralin", "setting": "[1]; tetralin, 7 days storage at room temperature", "value": "<25", "unit": "mg/mL"}, {"measurement": "solubility in toluene and mesitylene compared with B-2", "setting": "[1]; toluene and mesitylene, versus B-2", "value": "significantly better"}, {"measurement": "Solubility after 24 hours, Toluene", "setting": "[1]; toluene, 24 hours, room temperature", "value": "<20", "unit": "mg/mL"}, {"measurement": "Solubility after 7 days, Toluene", "setting": "[1]; toluene, 7 days storage at room temperature", "value": "<20", "unit": "mg/mL"}, {"measurement": "long-term stability of the solutions compared with B-2", "setting": "[1]; versus B-2", "value": "significantly better"}, {"measurement": "State of film after baking at elevated temp.", "setting": "[2]", "value": "clear"}]}
